Publication PMC10744391, “Sulfated Triterpene Glycosides from the Far Eastern Sea Cucumber Cucumaria djakonovi: Djakonoviosides C1, D1, E1, and F1; Cytotoxicity against Human Breast Cancer Cell Lines; Quantitative Structure–Activity Relationships” (Marine Drugs, 2023)
Entries after “also recorded” stand apart in the source; their conditions may differ. Counter-ions that a name gives are not always drawn. Like-named read-outs stand apart in the source and are kept apart here.

Assays:
in vitro = type: cell-based; settings: human
MDA-MB-231 cells [1] = experiment: Wound scratch migration assay, MDA-MB-231; type: cell-based, human; settings: MDA-MB-231, concentration 1 μM, 24 h of incubation
Method: (§1) Attached to special migration plate plastic bottom MCF-7 or MDA-MB-231 cells were separated by a silicone insert (Culture-insert 2 Well 24, ibiTreat). After removing an insert, gap between the cells was 500 ± 50 μm. Cell debris and floating cells were deleted by washing twice with PBS; 10 μM of 5 mM initial solution of CFDA SE ((5,6)-carboxyfluorescein succinimidyl ester) (LumiTrace CFDA SE kit, Lumiprobe, Moscow, Russia) in DMSO was dissolved in PBS and added to cells for 5 min at 37 °C; after washing twice with PBS, the fresh culture medium was added. Then, cells were treated with various concentrations of glycosides or culture medium only (vehicle control) and left for 24 and 72 h. Cell migration into the wound area was observed under a fluorescence microscope (MIB-2-FL, LOMO, Russia) with objective 10× magnification.

[2] = system: triple-negative MDA-MB-231 human breast cancer cell line; experiment: cells; type: cell-based; settings: for IC50: Homo sapiens, read-out: Cytotoxicity, IC50, MDA-MB-231; for Selectivity Index (SI), MDA-MB-231: ratio of IC50 for healthy (MCF-10A) and cancer cells
human erythrocytes = experiment: Hemolytic activity against human erythrocytes; type: cell-based; settings: human erythrocytes; for HC50: Erythrocyte, 1 h at 37 °C, dose causing lysis of 50% erythrocytes, read-out: ED50, Erythrocytes (hemolytic activity); for hemolytic activity (in words): concentration range up to 50 µM
Method: Human blood (B(III) Rh+) was used to obtain erythrocytes by centrifuging 450× g three times for 5 min with phosphate-buffered saline (PBS) (pH 7.4) at 4 °C on centrifuge LABOFUGE 400R (Heraeus, Hanau, Germany). Ice-cold PBS (pH 7.4) was used for resuspension of erythrocytes residue to a final optical density of 1.5 at 700 nm, which was kept on ice. Then, 20 µL of tested compound solution or control—djakonovioside A1 [5]—were added to 180 µL of erythrocyte suspension in V-bottom 96-well plates and exposed for 1 h at 37 °C. Next, centrifugation at 900× g for 10 min on laboratory centrifuge LMC-3000 (Biosan, Riga, Latvia), led to layers’ separation, and 100 µL of supernatant was carefully decanted and transferred into new flat-plate each. The values of erythrocyte lysis were measured on microplate photometer Multiskan FC (Thermo Fisher Scientific, Waltham, MA, USA) at λ = 570 nm as hemoglobin concentration in supernatant. The effective dose, causing lysis of 50% erythrocytes (ED50), was calculated with SigmaPlot 14.0 software. All the experiments were carried out in triple repetitions, p ≤ 0.05.

[3] = system: human breast cancer cell lines MCF-7, T-47D and MDA-MB-231; experiment: Cytotoxic activity (MTT assay), statements on the human breast cancer cell lines together; type: cell-based
Source text: Human erythrocytes were purchased from the Station of Blood Transfusion, Vladivostok. Human mammary epithelial cell line MCF-10A CRL-10317, human breast cancer cell lines T-47D HTB-133, MCF-7 HTB-22, and MDA-MB-231 CRM-HTB-26 were received from ATCC (Manassas, VA, USA). Culturing conditions: medium of RPMI-1640 with 1% penicillin/streptomycin (Biolot, St. Petersburg, Russia) and 10% fetal bovine serum (FBS) (Biolot, St. Petersburg, Russia) for T-47D cell line; Minimum Essential Medium (MEM) with 1% penicillin/streptomycin sulfate (Biolot, St. Petersburg, Russia) and FBS (Biolot, St. Petersburg, Russia) to a final concentration of 10% for MCF-7 and MDA-MB-231 cells; DMEM/F12 medium with 10% FBS, 20 ng/mL EGF, […], 100 ng/mL cholera toxin, 10 μg/mL insulin, and 1% penicillin/streptomycin (Bioinnlabs, Russia) for MCF-10A cell line.
Methodology: to each well of 96-well plates, the cell suspension (180 µL) with solution (20 µL) of tested glycoside in the certain concentration was placed (MCF-10A, MCF-7, T-47D, and MDA-MB-231—7 × 10^3 cells per well) and incubated in the atmosphere with 5% CO2 at 37 °C for 24 h. The times of incubation of cucumarioside A2-5 (6) and djakonoviosides C1 (1) and E1 (3), at concentrations of 0.5–12.0 μM with T-47D, MCF-7, or MDA-MB-231 cells, were 24, 48, and 72 hrs. Then, the solutions of tested compounds with medium were replaced by 100 µL of fresh medium, and 10 µL of 3-(4,5-dimethylthiazol-2-yl)-2,5-diphenyltetrazolium bromide (MTT) (PanReac, AppliChem, Darmstadt, Germany) stock solution (5 mg/mL) was added to each well and incubated for 4 h, followed by the addition of 100 µL of SDS-HCl solution (1 g SDS/10 mL d-H2O/17 µL 6 N HCl) and further incubated for 18 h. Multiskan FC microplate photometer (Thermo Fisher Scientific, Waltham, MA, USA) was used to measure the absorbance of the converted dye formazan at 570 nm. The concentration caused 50% cell metabolic activity inhibition (IC50), which expresses the cytotoxic activity of each glycoside. The experiments were conducted in triplicate, p ≤ 0.05.

[4] = system: MCF-7 human breast cancer cell line; experiment: cells; type: cell-based; settings: for IC50: read-out: Cytotoxicity, IC50, MCF-7; for Selectivity Index (SI), MCF-7: ratio of IC50 for healthy (MCF-10A) and cancer cells
[5] = system: T-47D human breast cancer cell line; experiment: cells; type: cell-based; settings: for IC50: Homo sapiens, T47D, read-out: Cytotoxicity, IC50, T-47D
MDA-MB-231 cells [6] = experiment: Colony formation (clonogenic) assay, MDA-MB-231; type: cell-based, human; settings: 10 days; for inhibitory effect on the formation of colonies: MDA-MB-231, concentration 2 μM
Method: (§2) The influence of glycosides on colony formation by MCF-7 or MDA-MB-231 cells was tested by the clonogenic assay. Cell density: 1 × 10^3 for MDA-MB-231 and 0.3 × 10^3 for MCF-7 cells per well; cell culture: MEM media, 10% FBS, 10,000 U/mL of penicillin, and 10,000 μg/mL of streptomycin supplemented or not (control) with different concentration of glycosides; incubation conditions: 10 days, 37 °C, atmosphere with 5% CO2; obtained: visible to eye colonies (at least 50 cells per colony); fixation with methanol (25 min); staining with 0.5% solution of crystal violet (25 min); washing and air-drying of plates.

MCF-7 cells [7] = experiment: Colony formation (clonogenic) assay, MCF-7; type: cell-based, human; settings: MCF-7, concentration 2 μM, 10 days
Method: as §2

MCF-7 cells [8] = experiment: Wound scratch migration assay, MCF-7; type: cell-based, human; settings: MCF-7, concentrations below EC50, 72 h
Method: as §1

Structure (SMILES): COC1C(O)C(COS(=O)(=O)O)OC(OC2C(O)C(COS(=O)(=O)O)OC(OC3C(C)OC(OC4C(OC5CCC6(C)C7=CCC8(C)C(C(C)=O)CCC8(C)C7CCC6C5(C)C)OCC(OS(=O)(=O)O)C4O)C(OC4OCC(O)C(O)C4O)C3O)C2O)C1O (centres unmarked) (hydrate or solvate) [isokoreoside A]
- melting point: 215 °C

Structure (SMILES): COC1C(O)C(CO)OC(OC2C(O)C(CO)OC(OC3C(C)OC(OC4C(OC5CCC6(C)C7CCC89C(=O)OC(C)(CC(=O)CC(C)C)C8C(OC(C)=O)CC9(C)C7=CCC6C5(C)C)OCC(OS(=O)(=O)O)C4O)C(OC4OCC(O)C(O)C4O)C3O)C2O)C1O (centres unmarked) [cucumarioside A2-5]
- IC50 (in vitro; MTT, 24 h incubation, read-out: Cytotoxicity, IC50, MCF-10A): 14 ± 1.03 µM
- inhibition of cell migration (scratch assay) (MDA-MB-231 cells [1]; 1 µM): about 85 % as compared to the control
- inhibition of cell migration (scratch assay) (MDA-MB-231 cells [1]; listed as Cucumarioside A2-5, 1 µM): 85 % as compared to the control
- IC50 ([2]; MDA-MB-231, MTT, 24 h incubation): 2.58 ± 0.1 µM
- Selectivity Index (SI), MDA-MB-231 [2]: 5.43
- HC50 (human erythrocytes): 1.63 ± 0.13 µM
- cytotoxicity on prolonged incubation (in words) ([3]; incubation for 48 and 72 h, 1 on MDA-MB-231, 6 on T-47D and MDA-MB-231): did not lose cytotoxicity over time
- IC50 ([4]; Homo sapiens, MCF7, MTT, 24 h incubation): 25.7 ± 1.49 µM
- Selectivity Index (SI), MCF-7 [4]: 0.55
- IC50 ([5]; MTT, 24 h incubation): 5.81 ± 0.86 µM
- Selectivity Index (SI), T-47D ([5]; ratio of IC50 for healthy (MCF-10A) and cancer cells): 2.41

Structure (SMILES): C=C(C)CCCC1(C)OC(=O)C23CCC4C(=CCC5C(C)(C)C(OC6OCC(OS(=O)(=O)O)C(O)C6OC6OCC(OC7OC(CO)C(O)C(OC8OC(CO)C(O)C(OC)C8O)C7O)C(O)C6OC6OCC(O)C(O)C6O)CCC45C)C2(C)CC(OC(C)=O)C13 [djakonovioside C1, 3β-O-{3-O-methyl-β-D-glucopyranosyl-(1→3)-β-D-glucopyranosyl-(1→4)-[(1→2)-β-D-xylopyranosyl]-β-D-xylopyranosyl-(1→2)-4-O-sodium sulfate-β-D-xylopyranosyl}-16β-acetoxyholosta-7,25-dien]
- IC50 at 24 h (in vitro): 21.8 ± 0.72 µM
- IC50 ([2]; MDA-MB-231, 24 h): 7.67 ± 0.32 µM
- Selectivity Index (SI), MDA-MB-231 [2]: 2.84
- HC50 (human erythrocytes): 8.55 ± 0.04 µM
- hemolytic activity (in words) (human erythrocytes; listed as Djakonovioside C1): slightly lower activity
- cytotoxicity on prolonged incubation (in words) [3]: did not lose cytotoxicity over time
- IC50 ([4]; Homo sapiens, MCF7, 24 h): 38.6 ± 2.36 µM
- Selectivity Index (SI), MCF-7 [4]: 0.56
- inhibitory effect on the formation and growth of colonies (MDA-MB-231 cells [6]; MDA-MB-231, concentration 1 μM): approximately 25 % of the control
- inhibitory effect on the formation of colonies (MDA-MB-231 cells [6]): approximately 25 % of the control
- IC50 ([5]; 24 h): 16.8 ± 0.76 µM

Structure (SMILES): C=C(C)CCCC1(C)OC(=O)C23CCC4C(=CCC5C(C)(C)C(OC6OCC(OS(=O)(=O)O)C(O)C6OC6OC(CO)C(OC7OC(COS(=O)(=O)O)C(O)C(OC8OC(COS(=O)(=O)O)C(O)C(OC)C8O)C7O)C(O)C6O)CCC45C)C2(C)CC(OC(C)=O)C13 [djakonovioside E1, 3β-O-[6-O-sodium sulfate-3-O-methyl-β-D-glucopyranosyl-(1→3)-6-O-sodium sulfate-β-D-glucopyranosyl-(1→4)-β-D-glucopyranosyl-(1→2)-4-O-sodium sulfate-β-D-xylopyranosyl]-16β-acetoxyholosta-7,25-dien]
- IC50 at 24 h (in vitro): > 50 µM
- inhibitory effect on the formation of colonies (MCF-7 cells [7]): 30.73 ± 0.49 % of the control
- IC50 ([2]; MDA-MB-231, 24 h): 2.19 ± 0.17 µM
- Selectivity Index (SI), MDA-MB-231 [2]: >22.83
- migration of MCF-7 cells (in words) (MCF-7 cells [8]): reliable blockage of the migration
- HC50 (human erythrocytes): 21.7 ± 0.94 µM
- hemolytic activity (in words) (human erythrocytes): weakly hemolytic; also recorded: low hemolytic activity
- IC50 ([4]; Homo sapiens, MCF7, 24 h): 1.52 ± 0.14 µM
- EC50 ([4]; Homo sapiens, MCF7, MTT, 48 h incubation, read-out: EC50, MCF-7 cells, 48 h incubation (antiproliferative effect)): 0.78 ± 0.32 µM
- Selectivity Index (SI), MCF-7 [4]: >32.89
- inhibitory effect on the formation of colonies (MDA-MB-231 cells [6]): 35.68 ± 2.00 % of the control
- IC50 ([5]; 24 h): > 50 µM
